# Laboratory results as given in publication PMC10520499, “Next step in the development of mesoprogestins: the preclinical profile of EC313” (Frontiers in Endocrinology, 2023).
# Experiments:
# human PR-B receptor = molecular target: T1, human PR-B receptor (Homo sapiens, UniProt P06401); experiment: PR-B transactivation (CHO, MMTV-LUC); assay type: cell-based
# T1 sequence (P06401 1-933): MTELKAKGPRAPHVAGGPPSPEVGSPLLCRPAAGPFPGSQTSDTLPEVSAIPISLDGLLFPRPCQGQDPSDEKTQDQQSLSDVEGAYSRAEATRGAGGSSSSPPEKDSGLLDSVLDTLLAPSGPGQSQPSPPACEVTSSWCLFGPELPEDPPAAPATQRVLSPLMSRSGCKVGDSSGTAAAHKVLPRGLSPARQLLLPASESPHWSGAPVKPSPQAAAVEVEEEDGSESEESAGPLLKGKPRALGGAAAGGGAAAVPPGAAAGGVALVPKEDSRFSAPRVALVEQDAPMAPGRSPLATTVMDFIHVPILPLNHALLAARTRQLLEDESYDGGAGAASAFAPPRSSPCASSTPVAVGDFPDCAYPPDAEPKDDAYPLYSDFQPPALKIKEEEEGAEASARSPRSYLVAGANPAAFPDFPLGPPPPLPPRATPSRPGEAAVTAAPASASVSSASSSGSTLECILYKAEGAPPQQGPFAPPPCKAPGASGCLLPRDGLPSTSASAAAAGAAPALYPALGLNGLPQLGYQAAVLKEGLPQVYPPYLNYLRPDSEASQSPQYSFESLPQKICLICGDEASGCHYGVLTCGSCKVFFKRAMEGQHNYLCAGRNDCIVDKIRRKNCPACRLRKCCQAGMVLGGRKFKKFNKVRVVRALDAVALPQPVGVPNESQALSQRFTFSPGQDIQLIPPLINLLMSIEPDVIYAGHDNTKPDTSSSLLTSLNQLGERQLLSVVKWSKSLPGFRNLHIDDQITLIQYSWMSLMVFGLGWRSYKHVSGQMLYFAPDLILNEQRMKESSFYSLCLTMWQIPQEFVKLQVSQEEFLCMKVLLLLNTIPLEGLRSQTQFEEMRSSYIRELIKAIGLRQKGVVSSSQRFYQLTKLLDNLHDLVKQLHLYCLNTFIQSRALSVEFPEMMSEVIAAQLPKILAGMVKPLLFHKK
# Description: The vector pcDNA3.1 coding sequence for the full length of human PRA and PRB (cDNA ORF clone in pcDNA3.1+/C-(K)-DYK) was used as an expression vector for PR isoform A and B, respectively. Vector pGL4.36 coding for the progesterone responsive element MMTV and firefly luciferase reporter vector [luc2P/Hygro] were used as reporter systems (pGL4.36-MMTV/LUC).
# A sufficient transactivation signal was achieved using stable transfection for the human PRA and PRB receptors and transient transfection for the MMTV-luciferase reporter gene. Therefore, the first stable transfection with the receptor of interest was performed. Thus, 0.5x10^6 CHO cells per well were plated into 6-well plates in transfection medium w/o antibiotics (RPMI phenol-free, 10% FBS,2mM L-glutamine). When the cells reached 80% confluency, transfection with receptor using FuGENE 6 in Opti-MEM medium was accomplished according to the manufacturer’s instruction. After 48h of transfection, stably transfected cells were cultured in a growth medium containing an antibiotic (G418 500 µg/mL). Only cells with the resistance gene (resistance to G418), which had been transfected together with the DNA for PRA and PRB were able to grow in this medium. Consequently, growing cell clones were selected for further steps as stable transfectants. The CHO cells stably transfected with the expression of PRA or PRB were transiently transfected with promoter MMTV/LUC vectors. For this purpose, cells with a density of 12.5x10^3 per well in a 96-well plate were transfected using transfection reagent FuGENE and Opti-MEM medium, following the manufacturer’s instructions. The recovery of cells lasted 24h and they were then moved into the culture medium and treated for 24h with test compounds.
# After 24h incubation of cells with tested compounds, luciferase activity was measured using a VICTOR™ X Multilabel Plate Reader -Perkin Elmer.
# [1] = molecular target: T2, human estrogen receptor α (Homo sapiens, UniProt P03372); experiment: Competitive binding, human estrogen receptor α; details: ERα, full length
# T2 construct: coding for the full length human estrogen receptors α and β, respectively, were obtained from GenScript; made in house; host or cells: HI (Hi5) insect cells, baculovirus; cellular lysate
# Description: The study aimed to characterize the competitive binding profile of EC313 to relevant human nuclear receptors. For the assays, commercially available ‘ligand binding domain’ proteins were purchased (Thermo Fisher Scientific). In addition, the full-length receptor proteins were expressed in transfected HI insect cells using the `Bac-to-bac Baculovirus expression system´ (Thermo Fisher Scientific). Cellular lysates served as receptor preparation. Receptor protein preparations were incubated with tritiated reference ligands and EC313 or reference steroids at concentrations between 0.1 and 1000 nM for 2h at 4°C to reach equilibrium. Subsequently, unbound steroids were adsorbed to dextran-coated charcoal (Sigma Aldrich), separated by filtration, and the remaining radioactivity was quantified in a ß-counter (Perkin Elmer). Displacement curves were fitted using the GraphPad Prism 7 free version to obtain EC50 values. Relative binding affinity (RBA [%], (C50ref/C50test)*100) and the competition coefficient (C50test/C50ref) were used to describe the relative binding potency of EC313 compared to the reference ligands.
# There are two subtypes of estrogen receptors (ER), ERα and ERβ, coded in different genes. Plasmids pFastBac1-ERa and pFastBac1-ERb, coding for the full length human estrogen receptors α and β, respectively, were obtained from GenScript. […]
# [2] = system: adrenalectomized male Wistar rats; experiment: Thymus-Involution-Test in adrenalectomized rats; assay type: in vivo, rat; details: doses up to 100 mg/animal/day s.c., 4 days
# Description: The standard Thymus-Involution-Test in rats was used. […] On day 5 the animals were sacrificed, and the thymus and spleen weights were determined. Reduced weight of the thymus indicated glucocorticoid activity. Stopping the dexamethasone-induced thymus reduction by the test compound indicated anti-glucocorticoid activity.
# [3] = system: human endometriotic tissue grafts; experiment: Human endometriotic xenografts in immunodeficient mice; assay type: in vivo; details: s.c. once daily 14 days; EC313 0,01, 0.1, 1 mg/animal/day; Ulipristal acetate 1 mg/animal/day; vs vehicle control
# Description: Endometriosis is one of the expected clinical target indications for the development of EC313. But, there are no reliable pre-clinical models known at present. From all experimental approaches, the transplantation of human endometriotic tissue into immunodeficient mice resembles the clinical situation to some extent closely. Treatment of EC313 was compared with UPA as a reference compound. Two to four small pieces of human endometriotic tissue were placed into a s.c. pouch in the pelvic area of each of the ovariectomized mice. At the same time, an E2-releasing pellet (0.36 mg/pellet/60 days) was implanted s.c. in the neck of the mice. Furthermore, 2 weeks after implantation, the mice were treated with once-daily s.c. injections of vehicle, EC313 (0,01, 0.1, and 1 mg/animal/day), or Ulipristal acetate (1 mg/animal/day) for 14 days. The mice were sacrificed 24 hours after the last injection and all identified endometriotic grafts were resected, weighed, and subjected to visual examination.
# [4] = system: estrogen-primed endometrium of immature rabbits; experiment: McPhail assay, estrogen-primed rabbit endometrium; assay type: in vivo; details: 10 and 30 mg/animal/day; progesterone 1 mg/animal/day; p< 0.05
# [5] = system: immature female ovariectomized Wistar rats; experiment: Uterus growth test in immature ovariectomized rats; assay type: in vivo, rat; details: daily s.c. doses of up to corresponding to 172 mg/kg body weight
# Description: […] The vehicle served as the negative control. After treatment, the animals were sacrificed on day 4, and their vagina and uterine horns were dissected and weighed.
# [6] = system: progesterone receptor (PRA, PRB) in T47D cells; experiment: PR nuclear translocation in T47D cells (Western blot); assay type: cell-based, human; details: 100 nM, compared to Promegestone, Mifepristone or Asoprisnil
# Description: Subsequently, progesterone receptors present in nuclear as well as cytosolic fractions were stained using Western blotting.
# […] (constitutively expressing the progesterone receptor) were treated with 100 nM of EC313 or reference compounds to activate PR. After 6h and after 24h cells were lysed, the nuclear and cytosolic fractions were separated and Western blots of these fractions were prepared.
# Blots were stained for PRA and PRB as well as the housekeeping proteins GAPDH (as a marker for the cytosolic fraction) and histone H3 (as a marker for the nuclear fraction). Nuclear and cytoplasmic proteins from […] were extracted after cell stimulation with PR ligands and the nuclear and cytoplasmic fractions were analyzed for PRB and PRA content using Western blotting.
# T2 sequence (P03372 whole entry): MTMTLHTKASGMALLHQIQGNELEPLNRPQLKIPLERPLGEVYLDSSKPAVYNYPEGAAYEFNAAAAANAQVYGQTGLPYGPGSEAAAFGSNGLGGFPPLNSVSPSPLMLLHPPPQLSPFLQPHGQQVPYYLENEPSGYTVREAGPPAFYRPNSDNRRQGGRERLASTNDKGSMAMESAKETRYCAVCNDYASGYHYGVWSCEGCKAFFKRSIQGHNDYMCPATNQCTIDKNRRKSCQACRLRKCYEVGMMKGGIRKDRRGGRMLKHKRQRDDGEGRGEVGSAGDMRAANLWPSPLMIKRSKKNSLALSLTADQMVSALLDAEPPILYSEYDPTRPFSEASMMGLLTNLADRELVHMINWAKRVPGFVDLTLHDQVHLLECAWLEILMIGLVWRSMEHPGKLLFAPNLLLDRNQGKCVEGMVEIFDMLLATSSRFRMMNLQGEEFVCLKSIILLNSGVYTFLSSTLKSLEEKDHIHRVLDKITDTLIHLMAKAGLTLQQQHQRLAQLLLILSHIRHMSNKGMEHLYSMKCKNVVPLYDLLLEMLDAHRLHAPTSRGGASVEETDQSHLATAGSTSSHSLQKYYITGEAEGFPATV
compound,measurement,setting,value
C[C@]12C[C@H](c3ccc(-c4ccoc4)cc3)C3=C4CCC(=O)C=C4CC[C@H]3[C@@H]1CC[C@]21OCCC1=C(F)F [EC313],potency relative to Mifepristone,human PR-B receptor; PR-B antagonism,approximately 13%
same,agonistic activity,"human PR-B receptor; PR-B, high nM concentrations",Only marginal agonistic activity
same,IC50,"human PR-B receptor; PR-B, set of 6 experiments, Promegestone 1.0 nM, read-out: average IC50, antagonism",2.5 ± 0.7 nM
same,competitive displacement of [3H]-estradiol,[1],did not cause any competitive displacement
same,glucocorticoid / anti-glucocorticoid activity (thymus weight),[2],neither glucocorticoid nor anti-glucocorticoid activities
same,weights of human endometriotic tissue grafts,[3],significantly lower weights of the grafts
same,antagonistic action with co-administered progesterone,[4],significant
same,estrogenic / anti-estrogenic activity (uterine horn and vagina weights),[5],neither estrogenic nor anti-estrogenic activity
same,receptors retained in the nuclear fraction after 24 hours,[6],retained more receptors in the nuclear fraction
